Non-standard residues stand in square brackets, D forms with d. Cit = NC(=O)NCCC[C@H](N)C(=O)O; Orn = NCCC[C@H](N)C(=O)O
How the values were obtained:
[1] = target: T1, murine E^d MHC class II allele (Mus musculus, UniProt P01904+P01915); test: simultaneous assay, E^d allele (A20 APC, G28.C9 T hybridoma, HEL106-116; HT-2 [3H]TdR readout); type: cell-based; set-up: The A20 and CH27 B cell lymphoma lines express H-2^d and H-2^k alleles, respectively; endogenous in cells; host or cells: A20 B cell lymphoma (mitomycin C-treated or paraformaldehyde-fixed); details: for Times Baseline Response, Ed: Table 3
T1 sequence (P01904 26-255): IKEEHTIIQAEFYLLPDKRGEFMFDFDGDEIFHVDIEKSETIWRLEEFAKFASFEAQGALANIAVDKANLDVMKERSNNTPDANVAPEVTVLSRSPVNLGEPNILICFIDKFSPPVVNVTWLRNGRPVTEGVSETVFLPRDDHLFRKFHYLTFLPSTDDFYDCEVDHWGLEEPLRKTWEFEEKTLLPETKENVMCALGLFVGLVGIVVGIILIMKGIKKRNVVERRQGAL
T1 sequence (P01915 27-264 limits assumed): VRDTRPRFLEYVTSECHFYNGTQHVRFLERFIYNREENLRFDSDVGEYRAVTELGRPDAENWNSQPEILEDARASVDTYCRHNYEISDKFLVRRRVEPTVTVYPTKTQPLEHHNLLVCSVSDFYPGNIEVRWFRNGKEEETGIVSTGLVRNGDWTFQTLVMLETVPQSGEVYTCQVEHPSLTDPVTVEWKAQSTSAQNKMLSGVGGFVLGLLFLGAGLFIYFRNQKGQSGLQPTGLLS
Method: (§1) Examples 1-4 (Tables 1-18) will be briefly considered in order to establish the concept of tolerance discussed above. These examples describe experimental results observed in the so-called “simultaneous” assay. In the simultaneous assay four principle components are cultured together for a 24 hour period. The components of this culture, which are added simultaneously, are: (a) an antigenic peptide characterized by the ability to bind specifically into the antigenic peptide binding groove of an MHC class II molecule, (b) mitomycin C-treated, MHC class II-positive antigen presenting cells (APC) bearing the MHC class II allele required for binding of the specific antigenic peptide, and presentation of the specific antigenic peptide to the antigenic peptide-specific T cell hybridoma, (c) an effector compound of the present invention, and (d) an MHC class II allele-restricted T cell hybridoma specific for the antigenic peptide and the MHC class II allele restricting its presentation. Following incubation of this primary culture, an aliquot of its supernatant is transferred into a second culture well for incubation with an interleukin-dependent lymphoblastoid cell line. The degree of stimulation of that second, indicator cell by the interleukins which had been released from the activated T cell hybridoma in the primary culture is measured by quantitating tritiated thymidine deoxyribose {[^3H]TdR} uptake into the DNA of the HT-2 indicator cells of that second culture.
(§2) In the “simultaneous assay” the four components of the assay are cultured together for a 24 h period. The components of this primary culture, added at the same time or simultaneously, are: (a) the antigenic peptide, (b) mitomycin C-treated, MHC class II-positive antigen presenting cells (APC) with the MHC class II allele required for binding of the specific antigenic peptide and its presentation to the antigenic peptide-specific T cell hybridoma, (c) an AE101 series effector peptide, and (d) MHC class II allele-restricted T cell hybridoma specific for the antigenic peptide and the MHC class II allele restricting its presentation. At the end of the incubation of this primary culture, an aliquot of its supernatant is transferred into a second culture well for incubation with an interleukin-dependent lymphoblastoid cell line. The degree of stimulation of that second, indicator cell by the interleukins which had been released from the activated T cell hybridoma in the primary culture is measured by quantitating tritiated thymidine deoxyribose {[^3H]TdR} uptake into the DNA of the HT-2 indicator cells of that second culture.
(§3) For these various assays, the following antigenic peptides were used: HEL11-25, hen egg lysozyme 11-25, AMKRHGLDNYRGYSL(A^d) (SEQ ID NO:5); HEL46-61, hen egg lysozyme 46-61, NTDGSTDYGILQINSR(Ak) (SEQ ID NO:6); HEL106-116, hen egg lysozyme 106-116, NAWVAWRNRCK (E^d) (SEQ ID NO:7); PGCC81-104, pigeon cytochrome c 81-104, […] (Ek) (SEQ ID NO:8), and THMCC82-103, tobacco hornworm moth cytochrome c 82-103, […] (Ek) (SEQ ID NO:9). AE101 series peptides were obtained from commercial sources. In general, the purity and composition of each peptide was confirmed by HPLC separation and mass spectrometry. The native protein antigens were HEL, hen egg lysozyme, and PGCC, pigeon cytochrome C. They were obtained from commercial sources.
(§4) For the experiments of these Examples, several T cell hybridomas, which are specific for certain antigenic peptides, were used. The TPc9.1 T hybridoma is specific for pigeon cytochrome C 81-104 peptide presented on the murine class II MHC allele E^k. The TPc9.1 hybridoma responds heteroclitically to tobacco hornworm moth cytochrome c 82-103 on E^k. The 3A9 T hybridoma is specific for hen egg lysozyme 46-61 on A^k. The 9.30.B2 hybridoma is specific for hen egg lysozyme 11-25 on A^d, and the G28.C9 hybridoma is specific for hen egg lysozyme 106-116 on E^d. […]

[2] = test system: murine E^k MHC class II allele; test: simultaneous assay, E^k allele (CH27 APC, TPc9.1 T hybridoma, THMCC82-103 or PGCC81-104); type: cell-based; details: for Times Baseline Response, Ek: Table 3, values reduced relative to E^d by a factor of 10
Method: as §1, §2, §3, §4

[3] = Table 9, AE peptide 64 μM, supernatant 1:4
[4] = Table 9, AE peptide 64 μM, supernatant 1:4, normalized by a factor of 5
[5] = Table 6, AE peptide 64 μM, supernatant 1:4
[6] = Table 6, AE peptide 64 μM, supernatant 1:4, reduced by a factor of 5
[7] = AE peptide 64 μM, supernatant 1:4
[8] = Table 10, AE peptide 16 μM (second value), supernatant 1:2
[9] = Table 10, AE peptide 64 μM (first value), supernatant 1:2
[10] = Table 10, AE peptide 64 μM, supernatant 1:2 (first value)
[11] = Table 10, AE peptide 64 μM, supernatant 1:4 (second value)

Ac-LRMKLP D-NH2 [AE244]
Times Baseline Response, E^d [1, 3]: 0.9
Times Baseline Response, E^k [2, 4]: 2.7

Ac-LRMKLP E-NH2 [AE245]
Times Baseline Response, E^d [1, 3]: 0.9
Times Baseline Response, E^k [2, 4]: 2.8

Ac-LRMKLP H-NH2 [AE243]
Times Baseline Response, E^d [1, 3]: 7.2
Times Baseline Response, E^k [2, 4]: 14.5

Ac-LRMKLP HArg-NH2 [AE242]
Times Baseline Response, E^d [1, 3]: 8.0
Times Baseline Response, E^k [2, 4]: 17.6

Ac-LRMKLP L-NH2 [AE251]
Times Baseline Response, E^d [1, 3]: 11.9
Times Baseline Response, E^k [2, 4]: 18.6

Ac-LRMKLP M-NH2 [AE250]
Times Baseline Response, E^d [1, 3]: 13.9
Times Baseline Response, E^k [2, 4]: 21.3

Ac-LRMKLP Q-NH2 [AE247]
Times Baseline Response, E^d [1, 3]: 4.5
Times Baseline Response, E^k [2, 4]: 10.9

Ac-LRMKLP Y-NH2 [AE249]
Times Baseline Response, E^d [1, 3]: 12.2
Times Baseline Response, E^k [2, 4]: 17.1

Ac-LRMKLP[Orn]-NH2 [AE240]
Times Baseline Response, E^d [1, 3]: 9.8
Times Baseline Response, E^k [2, 4]: 11.5

Ac-LRMKLpk-NH2 [AE173]
Times Baseline Response, E^d ([1]; Table 12, AE peptide 1 μM (fourth value), supernatant 1:2): 2
Times Baseline Response, E^d ([1]; Table 12, AE peptide 4 μM (third value), supernatant 1:2): 10
Times Baseline Response, E^d ([1]; Table 12, AE peptide 16 μM (second value), supernatant 1:2): 92
Times Baseline Response, E^d ([1]; Table 12, AE peptide 64 μM (first value), supernatant 1:2): 123
Times Baseline Response, E^k ([2]; Table 12, AE peptide 1 μM (fourth value), supernatant 1:4): 2.1
Times Baseline Response, E^k ([2]; Table 12, AE peptide 4 μM (third value), supernatant 1:4): 4.3
Times Baseline Response, E^k ([2]; Table 12, AE peptide 16 μM (second value), supernatant 1:4): 25.0
Times Baseline Response, E^k ([2]; Table 12, AE peptide 64 μM (first value), supernatant 1:4): 51.3

Ac-LRM[Cit]LPK-NH2 [AE211]
Times Baseline Response, E^d [1, 5]: 1.7
Times Baseline Response, E^k [2, 6]: 3.4

Ac-LRM[Orn]LPK-NH2 [AE210]
Times Baseline Response, E^d [1, 5]: 6.6
Times Baseline Response, E^k [2, 6]: 9.0

Ac-LR[Cit]KLPK-NH2 [AE196]
Times Baseline Response, E^d ([1]; Table 5, AE peptide 64 μM, supernatant 1:4): 13.6
Times Baseline Response, E^k ([2]; Table 5, AE peptide 64 μM, supernatant 1:4, normalized to E^d by a factor of 10): 18.4

Ac-M RMKLPK-NH2 [AE190]
Times Baseline Response, Ed [1, 7]: 9.8
Times Baseline Response, Ek [2, 7]: 15.2

Ac-N RMKLPK-NH2 [AE187]
Times Baseline Response, Ed [1, 7]: 6.3
Times Baseline Response, Ek [2, 7]: 9.5

Ac-Q RMKLPK-NH2 [AE188]
Times Baseline Response, Ed [1, 7]: 8.8
Times Baseline Response, Ek [2, 7]: 7.7

Ac-YRAKLPKSAK-NH2 [AE122]
Times Baseline Response, E^d [1, 8]: 9.2
Times Baseline Response, E^d [1, 9]: 16.2
Times Baseline Response, E^k [2, 10]: 46.2
Times Baseline Response, E^k [2, 11]: 41.4

Ac-YRMALPKSAK-NH2 [AE123]
Times Baseline Response, E^d [1, 8]: 10.7
Times Baseline Response, E^d [1, 9]: 24.0
Times Baseline Response, E^k [2, 10]: 65.0
Times Baseline Response, E^k [2, 11]: 51.1

Ac-YRMKAPKSAK-NH2 [AE124]
Times Baseline Response, E^d [1, 8]: 7.3
Times Baseline Response, E^d [1, 9]: 12.5
Times Baseline Response, E^k [2, 10]: 66.0
Times Baseline Response, E^k [2, 11]: 65.9

Ac-YRMKLAKSAK-NH2 [AE125]
Times Baseline Response, E^d [1, 8]: 1.7
Times Baseline Response, E^d [1, 9]: 2.0
Times Baseline Response, E^k [2, 10]: 38.7
Times Baseline Response, E^k [2, 11]: 32.8

Ac-YRMKLPASAK-NH2 [AE126]
Times Baseline Response, E^d [1, 8]: 6.8
Times Baseline Response, E^d [1, 9]: 18.2
Times Baseline Response, E^k [2, 10]: 53.4
Times Baseline Response, E^k [2, 11]: 56.4

Ac-YRMKLPKAAK-NH2 [AE127]
Times Baseline Response, E^d [1, 8]: 12.4
Times Baseline Response, E^d [1, 9]: 19.1
Times Baseline Response, E^k [2, 10]: 63.6
Times Baseline Response, E^k [2, 11]: 63.4

From patent US6835382B2, “Ii peptide therapeutics to enhance antigen presentation” (University of Massachusetts, priority 1996, dated 2004)
